Results: patent US20240293351A1, “METHODS OF ADMINISTERING SYNTHETIC TRITERPENOIDS” (REATA PHARMACEUTICALS HOLDINGS, LLC, priority 2020, published 2024)

Legend:
[1] = clinical; settings: human, in vivo, po
[2] = Pharmacokinetic study 402-C-1102 in patients with type 2 diabetes and stage 3b/4 CKD (24-h urine); type: in vivo, human; settings: 20 mg once daily 56 days
[3] = Drug-drug interaction study: bardoxolone methyl alone and with itraconazole in healthy volunteers; settings: for AUC extra %, GM / AUC extra %, Mean / CL/F, GM / CL/F, Mean / λz, GM / λz, Mean / AUC(0-t) / AUC(0-inf) / Cmax / half-life / Vd/F / Tmax: plasma; for AUC(0-t) / AUC(0-inf) / Cmax / half-life / Vd/F / Tmax: human; for AUC(0-t): AUC0-t; for AUC(0-inf): AUC0-∞; for Vd/F: Vz/F
[4] = Open label dose-ranging study 402-C-0902 in type 2 diabetic patients with stage 3b-4 CKD; type: in vivo, human; set-up: ΔSBP, change from baseline / ΔDBP, change from baseline: unit not given beside the values
[5] = Period 1: single oral 10 mg bardoxolone methyl alone, fasted, n = 16
[6] = Period 2: single 10 mg bardoxolone methyl with daily 200 mg itraconazole, n = 15
[7] = bardoxolone methyl alone (Period 1)
[8] = oral, 10 mg, Geom. Mean, Bardoxolone Methyl Alone (A), paired analysis n = 15
[9] = oral, GM, Period 2: single 10 mg bardoxolone methyl with daily 200 mg itraconazole, n = 15
[10] = oral, Geom. Mean, Bardoxolone Methyl + Itraconazole (B), paired analysis n = 15
[11] = oral, Mean, Period 2: single 10 mg bardoxolone methyl with daily 200 mg itraconazole, n = 15
[12] = po, 10 mg, GM, Period 1: single oral 10 mg bardoxolone methyl alone, fasted, n = 16
[13] = po, 10 mg, Mean, Period 1: single oral 10 mg bardoxolone methyl alone, fasted, n = 16
[14] = 2.5 mg once daily 85 days, CKD Stage 3b/4, N = 14
[15] = 2.5 mg once daily 85 days, CKD Stage 3b, N = 10
[16] = 2.5 mg once daily 85 days, CKD Stage 4, N = 4
[17] = 5 mg once daily 85 days, CKD Stage 3b/4, N = 24
[18] = 5 mg once daily 85 days, CKD Stage 3b, N = 19
[19] = 5 mg once daily 85 days, CKD Stage 4, N = 5
[20] = 10 mg once daily 85 days, CKD Stage 3b/4, N = 24
[21] = 10 mg once daily 85 days, CKD Stage 3b, N = 20
[22] = 10 mg once daily 85 days, CKD Stage 4, N = 4
[23] = 15 mg once daily 85 days, CKD Stage 3b/4, N = 48
[24] = 15 mg once daily 85 days, CKD Stage 3b, N = 26
[25] = 15 mg once daily 85 days, CKD Stage 4, N = 22
[26] = 30 mg once daily 85 days, CKD Stage 3b/4, N = 12
[27] = 30 mg once daily 85 days, CKD Stage 3b, N = 3
[28] = 30 mg once daily 85 days, CKD Stage 4, N = 9

**Q.** Which results are given for COC(=O)[C@]12CCC(C)(C)C[C@H]1[C@H]1C(=O)C=C3[C@@]4(C)C=C(C#N)C(=O)C(C)(C)[C@@H]4CC[C@@]3(C)[C@]1(C)CC2 [Bardoxolone methyl, methyl-2-cyano-3,12-dioxooleana-1,9-dien-28-oic acid]?
**A.** half-life [1]: 48 to 60 h; 24-h Urinary Sodium, WK 8 Δ from baseline, mean ([2]; CKD Stage 3b, N = 9): −12 mmol/24 h; 24-h Urine Volume, WK 8 Δ from baseline, mean ([2]; CKD Stage 3b, N = 9): 355 mL; 24-h Urinary Sodium, WK 8 Δ from baseline, mean ([2]; CKD Stage 4, N = 6): −89 mmol/24 h; 24-h Urine Volume, WK 8 Δ from baseline, mean ([2]; CKD Stage 4, N = 6): -610 mL; Tolerability of concomitant administration with itraconazole ([3]; 10 mg + itraconazole 200 mg): generally safe and well tolerated; Clearance (GM CL/F) ([3]; 10 mg single dose + itraconazole 200 mg daily): 41.6 L/h; Clearance (GM CL/F) ([3]; 10 mg single dose, alone): 359 L/h; Increase in exposure in the presence of itraconazole ([3]; 10 mg single dose, itraconazole 200 mg daily): > 5 fold; AUC extra %, GM [3, 5]: 5.81%; AUC extra %, Mean [3, 5]: 6.10%; CL/F, GM [3, 5]: 359 L/h; CL/F, Mean [3, 5]: 402 L/h; λz, GM [3, 5]: 0.0370 h⁻¹; λz, Mean [3, 5]: 0.0392 h⁻¹; AUC extra %, GM [3, 6]: 7.64%; AUC extra %, Mean [3, 6]: 8.47%; CL/F, GM [3, 6]: 41.6 L/h; CL/F, Mean [3, 6]: 42.8 L/h; λz, GM [3, 6]: 0.0074 h⁻¹; λz, Mean [3, 6]: 0.00762 h⁻¹; Subjects with a TEAE, n (%) [3, 7]: 3 (18.8%); Subjects with study drug-related TEAEs (diarrhea, nausea, headache), n (%) [3, 7]: 1 (6.3%); Subjects with a TEAE, n (%) ([3]; concomitant bardoxolone methyl and itraconazole (Period 2)): 1 (6.7%); AUC(0-t) [3, 8]: 25.8 ng·h/mL; AUC(0-inf) [3, 8]: 27.6 ng·h/mL; Cmax [3, 8]: 2.41 ng/mL; half-life ([3]; oral, 10 mg, Mean t1/2, 10 mg single dose, alone): 19.8 h; AUC(0-t) [3, 9]: 220 ng·h/mL; AUC(0-t) [3, 10]: 220 ng·h/mL; AUC(0-t) [3, 11]: 226 ng·h/mL; AUC(0-inf) [3, 9]: 241 ng·h/mL; AUC(0-inf) [3, 10]: 241 ng·h/mL; AUC(0-inf) [3, 11]: 248 ng·h/mL; Cmax [3, 9]: 16.6 ng/mL; Cmax [3, 10]: 16.6 ng/mL; Cmax [3, 11]: 17.3 ng/mL; half-life ([3]; oral, Mean t1/2, 10 mg single dose + itraconazole 200 mg daily): 95.9 h; Vd/F [3, 9]: 5620 L; Vd/F [3, 11]: 5900 L; Tmax [3, 11]: 3.1 h; Tmax ([3]; oral, Median, Period 2: single 10 mg bardoxolone methyl with daily 200 mg itraconazole, n = 15): 3 h; half-life ([3]; oral, t½, Mean, Period 2: single 10 mg bardoxolone methyl with daily 200 mg itraconazole, n = 15): 95.9 h; half-life ([3]; oral, t½, Median, Period 2: single 10 mg bardoxolone methyl with daily 200 mg itraconazole, n = 15): 97.7 h; AUC(0-t) [3, 12]: 26.1 ng·h/mL; AUC(0-t) [3, 13]: 29.3 ng·h/mL; AUC(0-inf) [3, 12]: 27.8 ng·h/mL; AUC(0-inf) [3, 13]: 31 ng·h/mL; Cmax [3, 12]: 2.43 ng/mL; Cmax [3, 13]: 2.58 ng/mL; Vd/F [3, 12]: 9700 L; Vd/F [3, 13]: 10200 L; Tmax [3, 13]: 2.9 h; Tmax ([3]; po, 10 mg, Median, Period 1: single oral 10 mg bardoxolone methyl alone, fasted, n = 16): 2.5 h; half-life ([3]; po, 10 mg, t½, Mean, Period 1: single oral 10 mg bardoxolone methyl alone, fasted, n = 16): 19.8 h; half-life ([3]; po, 10 mg, t½, Median, Period 1: single oral 10 mg bardoxolone methyl alone, fasted, n = 16): 20.3 h; Changes in laboratory parameters ([3]; whole study): no clinically relevant mean or individual changes in laboratory parameters; Deaths, SAEs, adverse events leading to discontinuation ([3]; whole study): No subjects died, had an SAE, or had an adverse event that led to discontinuation of study drug; ΔDBP, change from baseline [4, 14]: 0.2 ± 1.8; ΔSBP, change from baseline [4, 14]: 0.1 ± 4.2; ΔDBP, change from baseline [4, 15]: 1 ± 2; ΔSBP, change from baseline [4, 15]: 0 ± 4.4; ΔDBP, change from baseline [4, 16]: −1.5 ± 3.9; ΔSBP, change from baseline [4, 16]: 0.3 ± 11; ΔDBP, change from baseline [4, 17]: −1.4 ± 1.5; ΔSBP, change from baseline [4, 17]: −1.5 ± 2.3; ΔDBP, change from baseline [4, 18]: −1.3 ± 1.4; ΔSBP, change from baseline [4, 18]: −2.1 ± 2 ^; ΔDBP, change from baseline [4, 19]: −1.4 ± 5.6; ΔSBP, change from baseline [4, 19]: 0.5 ± 9.1; ΔDBP, change from baseline [4, 20]: 0.3 ± 1.3; ΔSBP, change from baseline [4, 20]: −2.4 ± 3.1; ΔDBP, change from baseline [4, 21]: −0.3 ± 1.3; ΔSBP, change from baseline [4, 21]: −4.2 ± 3.4; ΔDBP, change from baseline [4, 22]: 3.6 ± 4.5; ΔSBP, change from baseline [4, 22]: 6.1 ± 6.7; ΔDBP, change from baseline [4, 23]: −1 ± 1.2; ΔSBP, change from baseline [4, 23]: 1.1 ± 2.3; ΔDBP, change from baseline [4, 24]: −1.3 ± 1.5; ΔSBP, change from baseline [4, 24]: −2.2 ± 3.3; ΔDBP, change from baseline [4, 25]: −0.6 ± 1.9; ΔSBP, change from baseline [4, 25]: 5 ± 2.8; ΔDBP, change from baseline [4, 26]: 3.2 ± 2.2; ΔSBP, change from baseline [4, 26]: 7.2 ± 6.2; ΔDBP, change from baseline [4, 27]: −1.8 ± 3.9; ΔSBP, change from baseline [4, 27]: −0.4 ± 13.8; ΔDBP, change from baseline [4, 28]: 4.7 ± 2.5; ΔSBP, change from baseline [4, 28]: 9.7 ± 7.3; Blood pressure changes ([4]; 2.5 to 30 mg, 85 consecutive days, amorphous dispersion formulation): no dose-related trend in blood pressure changes or change at any individual dose level was noted; AE, SOC Card: Cardiac failure congestive, patients n (%) ([4]; SDD 2.5 mg QD 85 days, N = 14): 0; AE, SOC Card: Oedema peripheral, patients n (%) ([4]; SDD 2.5 mg QD 85 days, N = 14): 0; AE, SOC Genrl: Oedema peripheral, patients n (%) ([4]; SDD 2.5 mg QD 85 days, N = 14): 0; AE, SOC Metab: Oedema peripheral, patients n (%) ([4]; SDD 2.5 mg QD 85 days, N = 14): 0; AE, SOC Resp: Dyspnoea exertional, patients n (%) ([4]; SDD 2.5 mg QD 85 days, N = 14): 1 (7); AE, SOC Resp: Dyspnoea, patients n (%) ([4]; SDD 2.5 mg QD 85 days, N = 14): 0; SAE, SOC Card: Cardiac failure congestive, patients n (%) ([4]; SDD 2.5 mg QD 85 days, N = 14): 0; AE, SOC Card: Cardiac failure congestive, patients n (%) ([4]; SDD 5 mg QD 85 days, N = 25): 0; AE, SOC Card: Oedema peripheral, patients n (%) ([4]; SDD 5 mg QD 85 days, N = 25): 0; AE, SOC Genrl: Oedema peripheral, patients n (%) ([4]; SDD 5 mg QD 85 days, N = 25): 3 (12); AE, SOC Metab: Oedema peripheral, patients n (%) ([4]; SDD 5 mg QD 85 days, N = 25): 0; AE, SOC Resp: Dyspnoea exertional, patients n (%) ([4]; SDD 5 mg QD 85 days, N = 25): 0; AE, SOC Resp: Dyspnoea, patients n (%) ([4]; SDD 5 mg QD 85 days, N = 25): 0; SAE, SOC Card: Cardiac failure congestive, patients n (%) ([4]; SDD 5 mg QD 85 days, N = 25): 0; AE, SOC Card: Cardiac failure congestive, patients n (%) ([4]; SDD 10 mg QD 85 days, N = 28): 1 (4); AE, SOC Card: Oedema peripheral, patients n (%) ([4]; SDD 10 mg QD 85 days, N = 28): 1 (4); AE, SOC Genrl: Oedema peripheral, patients n (%) ([4]; SDD 10 mg QD 85 days, N = 28): 5 (18); AE, SOC Metab: Oedema peripheral, patients n (%) ([4]; SDD 10 mg QD 85 days, N = 28): 0; AE, SOC Resp: Dyspnoea exertional, patients n (%) ([4]; SDD 10 mg QD 85 days, N = 28): 0; AE, SOC Resp: Dyspnoea, patients n (%) ([4]; SDD 10 mg QD 85 days, N = 28): 0; SAE, SOC Card: Cardiac failure congestive, patients n (%) ([4]; SDD 10 mg QD 85 days, N = 28): 1 (4); AE, SOC Card: Cardiac failure congestive, patients n (%) ([4]; SDD 15 mg QD 85 days, N = 50): 0; AE, SOC Card: Oedema peripheral, patients n (%) ([4]; SDD 15 mg QD 85 days, N = 50): 1 (2); AE, SOC Genrl: Oedema peripheral, patients n (%) ([4]; SDD 15 mg QD 85 days, N = 50): 3 (6); AE, SOC Metab: Oedema peripheral, patients n (%) ([4]; SDD 15 mg QD 85 days, N = 50): 0; AE, SOC Resp: Dyspnoea exertional, patients n (%) ([4]; SDD 15 mg QD 85 days, N = 50): 0; AE, SOC Resp: Dyspnoea, patients n (%) ([4]; SDD 15 mg QD 85 days, N = 50): 0; SAE, SOC Card: Cardiac failure congestive, patients n (%) ([4]; SDD 15 mg QD 85 days, N = 50): 0; AE, SOC Card: Cardiac failure congestive, patients n (%) ([4]; SDD 30 mg QD 85 days, N = 14): 1 (7); AE, SOC Card: Oedema peripheral, patients n (%) ([4]; SDD 30 mg QD 85 days, N = 14): 0; AE, SOC Genrl: Oedema peripheral, patients n (%) ([4]; SDD 30 mg QD 85 days, N = 14): 3 (21); AE, SOC Metab: Oedema peripheral, patients n (%) ([4]; SDD 30 mg QD 85 days, N = 14): 1 (7); AE, SOC Resp: Dyspnoea exertional, patients n (%) ([4]; SDD 30 mg QD 85 days, N = 14): 0; AE, SOC Resp: Dyspnoea, patients n (%) ([4]; SDD 30 mg QD 85 days, N = 14): 1 (7); SAE, SOC Card: Cardiac failure congestive, patients n (%) ([4]; SDD 30 mg QD 85 days, N = 14): 1 (7)
